Data on ten compounds can be found in ChEMBL document CHEMBL1150887, “Isolation, identification, and antioxidant activity of three stilbene glucosides newly extracted from vitis vinifera cell cultures” (J Nat Prod, 1998).

Molecules are shown by their SMILES. pIC50: −log10 of the molar value.

For test [1], the system named is Radical scavenging activity. Kind of test: Antioxidant activity assessed as DPPH radical scavenging activity. The class given is functional. (DPPH is a stable violet radical that fades when it is reduced.)
The nature of test [2]: Antioxidant activity against cupric ion-induced lipid peroxidation in human LDL by TBA assay. The format is functional.

A word on the pIC50: it is −log10 of the IC50, conventionally taken in molar units. On to `OC[C@H]1O[C@@H](Oc2cc(O)cc(/C=C/c3ccc(O)c(O)c3)c2)[C@H](O)[C@@H](O)[C@@H]1O`, for which the figures for the pIC50 in test [1] and in test [2] were 4.52 and 5.52, respectively.
In the case of `Oc1ccc(/C=C\c2cc(O)cc(O)c2)cc1` [CIS-RESVERATROL], the pIC50 is 4.02 in test [1] and 4.74 in test [2].
With `OC[C@H]1O[C@@H](Oc2ccc(/C=C/c3cc(O)cc(O)c3)cc2O)[C@H](O)[C@@H](O)[C@@H]1O` [E-RESVERATROLOSIDE], the negative logarithm of the IC50 (pIC50) in test [1] was 3.00; in test [2], 4.00.
For `Oc1cc(O)cc(/C=C/c2ccc(O)c(O)c2)c1` [PICEATANNOL] the same measures were 4.55 and 5.74.
For `OC[C@H]1O[C@@H](Oc2cc(O)cc(/C=C/c3ccc(O)cc3)c2)[C@H](O)[C@@H](O)[C@@H]1O` [PICEID] the same measures were 3.70 and 4.72.
As for `Oc1ccc(/C=C/c2cc(O)cc(O)c2)cc1` [RESVERATROL], the figures for the pIC50 in test [1] and in test [2] were 4.14 and 5.62, respectively.
As for `Cc1c(C)c2c(c(C)c1O)CCC(C)(C(=O)O)O2` (stereo not given) [TROLOX], the pIC50 in test [1] is 5.00; in test [2] it was 5.33.
For the compound `OC[C@H]1O[C@@H](Oc2cc(O)cc(/C=C\c3ccc(O)c(O)c3)c2)[C@H](O)[C@@H](O)[C@@H]1O` [Z-ASTRINGIN], the pIC50 in test [1] is 4.54; in test [2] it was 5.60.
On to `OC[C@H]1O[C@@H](Oc2cc(O)cc(/C=C\c3ccc(O)cc3)c2)[C@H](O)[C@@H](O)[C@@H]1O` [Z-PICEID], for which the pIC50 in test [1] is 3.85; in test [2], 4.77.
The matching figures for `OC[C@H]1O[C@@H](Oc2ccc(/C=C\c3cc(O)cc(O)c3)cc2O)[C@H](O)[C@@H](O)[C@@H]1O` [Z-RESVERATROLOSIDE]: under 3.00 and 3.82.
